Assay results reported in patent EP2420245A1, “Therapeutic use of agonists or antagonists of bradykinin receptor 1 or 2, for modulation collateral blood vessel growth” (MAX-DELBRÜCK-CENTRUM FÜR MOLEKULARE MEDIZIN, priority 2010, dated 2012).

Columns and labels:
[1] = relative to the natural ligand Lys-desArg-bradykinin; cited from earlier work
[2] = system: 3-vessel occlusion (3-VO) cerebral arteriogenesis model in rat; assay: 3-vessel occlusion (3-VO) cerebral arteriogenesis model: collateral growth / diameter of the posterior cerebral artery (postmortem latex perfusion); type: in vivo; conditions: rat 3-VO model, antagonist treatment, 3 weeks post 3-VO (Figure 5)
Description: Pharmacological modulation of arteriogenesis was analysed using a 3 vessel occlusion (3-VO) model for cerebral arteriogenesis in the rat (Occlusion of both vertebral arteries and one carotid artery). Upon occlusion of three of four blood-supplying arteries to the brain, blood flow is redistributed by the recruitment of collateral pathways such as the posterior cerebral artery to supply the hypoperfusion area with blood. The 3-VO model in the rat has been established since 2003 and is acknowledged as a hypoperfusion model for testing cerebral arteriogenesis (Busch, Buschmann et al. 2003). By using the 3-VO model, relevant therapeutic stimulation of arteriogenesis was shown for instance by the application of GM-CSF (Buschmann, Circulation 2003).
Either by inhibition or stimulation of the bradykinin receptor signalling pathways, arteriogenesis was determined and physiological parameters of the brain were tested.
The characterisation of arteriogenesis was carried out via measurement of the artery or blood vessel diameter (posterior cerebral artery - PCA) in addition to via a measurement of the cerebrovascular reactivity (perfusion reserves in the brain). Cerebrovascular anatomy was studied after maximal vasodilation by a modification of the postmortem latex perfusion method of Maeda et al (Maeda, Hata et al. 1998) .

Row | Compound | susceptibility toward proteolysis [1] | arteriogenesis (collateral growth) [2]
1 | CNCC(=O)N[C@@H](CCCNC(=N)N)C(=O)N1CCC[C@H]1C(=O)N1CCC[C@H]1C(=O)NCC(=O)N[C@@H](Cc1ccccc1)C(=O)N[C@@H](CO)C(=O)N1CCC[C@H]1C(=O)N[C@H](Cc1ccccc1)C(=O)O [R838, Sar-[D-Phe]des-Arg^9-bradykinin] | lower | 
2 | (Des-Arg^9, Leu^8)-bradykinin [H1960] |  | inhibited
